Calls of active or inactive are those of the source. The rule behind the calls is not given here.

The first assay relates to Ileum. The assay is described as follows: Antispasmodic activity in guinea pig ileum assessed as inhibition of acetylcholine-induced contraction at 10 uM. The assay is classed as functional, Cavia porcellus. On the set-up: scale not given: the % may be the effect or the level left.
Conditions: not given
As to `CC(=O)C1=C(O)[C@@H]2[C@H]3c4c[nH]c5cccc(c45)C[C@H]3C(C)(C)N2C1=O` [CYCLOPIAZONIC ACID], the Activity came to 52.3%.

In another assay the test system is Ileum. As to the kind of experiment: Antispasmodic activity in guinea pig ileum assessed as inhibition of acetylcholine-induced contraction at 30 ug/mL. Format: functional. The note with it: Cavia porcellus.
Regarding `COc1ccccc1-c1coc2cc(O)c(C)c(O)c2c1=O`, the Emax at 30 µg/mL worked out at 36.8%.

For `COc1cc(O)c2c(c1)O[C@@H]1COc3c(O)cccc3[C@@]1(O)C2=O`, the Emax at 30 µg/mL came to 19.4%. As to `COC1Oc2cc(O)ccc2-c2c1oc1cc(O)c(C)c(O)c1c2=O` (stereo not given), the result was inactive. Still for that read-out and setting: next, `COc1cc2c(c(O)c1C)C(=O)[C@]1(O)c3cccc(O)c3OC[C@H]1O2`: “inactive”; `COc1cc2oc3c(c(=O)c2c(O)c1C)-c1cccc(O)c1OC3OC` (stereo not given): “inactive”. Turning to `O=c1c2c(oc3cc(O)cc(O)c13)C(O)Oc1ccccc1-2` (stereo not given), the outcome was inactive.

On to `COc1cc2oc3c(c(=O)c2c(O)c1C)-c1cccc(O)c1OC3O` (stereo not given) [9-O-METHYL-4-HYDROXYBOERAVINONE B], for which the Emax at 30 µg/mL was 100%. Turning to `COc1cc2oc3c(c(=O)c2c(O)c1O)-c1ccccc1OC3O` (stereo not given) [9-O-METHYL-10-HYDROXYCOCCINEONE B], the Emax at 30 µg/mL was 36.1%.

Take `Cc1c(O)cc2oc3c(c(=O)c2c1O)-c1ccc(O)cc1OC3O` (stereo not given) [BOERAVINONE E]: the Emax at 30 µg/mL amounted to 100%. As to `Cc1c(O)cc2oc3c(=O)oc4cc(O)ccc4c3c(=O)c2c1O` [BOERAVINONE F], the Emax at 30 µg/mL was 50%.

For the compound `COc1cc(O)c2c(=O)c3c(oc2c1)C(OC)Oc1c(O)cccc1-3` (stereo not given) [BOERAVINONE G], the Emax at 30 µg/mL amounted to 60%. Still for that read-out and setting: next, `COc1cc2c(c(O)c1OC)C(=O)[C@]1(O)c3ccccc3OC[C@H]1O2` [COCCINEONE E]: 25.2%; `COc1ccc(Cc2nccc3cc(OC)c(OC)cc23)cc1OC` [PAPAVERINE]: 72.3%.

The test system of another assay is Ileum. The assay is described as follows: Antispasmodic activity in guinea pig ileum assessed as inhibition of acetylcholine-induced contraction at 1 uM. Format: functional, Cavia porcellus. The arrangement: scale not given: the % may be the effect or the level left.
Conditions: not given
Take `COC(=O)C1=C(C)NC(C)=C(C(=O)OC)C1c1ccccc1[N+](=O)[O-]` [NIFEDIPINE]: the Activity was found to be 47.3%.

The values above are taken from ChEMBL document CHEMBL1157964, “Spasmolytic effects of nonprenylated rotenoid constituents of Boerhaavia diffusa roots” (2006).
